These results are taken from paper PMC3969230, “Structural and functional characterization of NanU, a novel high-affinity sialic acid-inducible binding protein of oral and gut-dwelling Bacteroidetes species” (Biochemical Journal, 2014).

For one assay, the system named is NanU. The assay is described as follows: Steady-state tryptophan fluorescence titration, NanU (species not told apart). It counts as binding. The conditions noted are these: for binding to NanU (in words): tryptophan fluorescence quenching. Here is the method:
(§1) Proteins were diluted in 25 mM sodium phosphate buffer, pH 7.4, to a final concentration of 0.5 μM and incubated at 25°C for 5 min before substrate titration. The quenching of intrinsic tryptophan fluorescence was measured at 25°C with constant stirring in a 104F-QS quartz fluorescence semi-micro cell (Hellma Analytics) using a Varian Cary Eclipse spectrofluorometer. The excitation and emission wavelengths were 295 nm (5 nm slit width) and 330 nm (10 nm slit width) respectively. Corrections for background fluorescence changes due to dilution effects with the stepwise addition of ligands were made by buffer titrations. Analysis and curve fitting of titration data were performed in Prism 5 (GraphPad Software), with the equilibrium dissociation constants (Kd) for one site-specific binding calculated using eqn (1): (1) Y=Bmax×X/(Kd+X) where X is the final concentration of ligand, Y is the percentage increase in protein quenching in relation to the protein-only fluorescence signal and Bmax is the extrapolated maximum specific binding.

A further assay relates to BT1043. Also noted: method as in PMID 19191477. The conditions noted are these: non-physiological ligand; cited from earlier work.
The target in another assay is TF-NanU (TF0034) (Tannerella forsythia, UniProt G8UIQ0). Briefly: Steady-state tryptophan fluorescence titration, TF-NanU. The note with it: 0.5 μM protein, 25 mM sodium phosphate pH 7.4, 25°C, one-site specific binding. How it is done:
as §1

For the next assay, the target named is BF-NanU (BF1720) (Bacteroides fragilis, UniProt Q5LEN2). Briefly: Steady-state tryptophan fluorescence titration, BF-NanU. The format is binding. How it is done:
as §1

Assay [1] concerns the target lectin domain of the Vibrio cholerae sialidase. Details: method as in PMID 15226294. The note with it: read-out: affinity; cited from earlier work.
In another assay the target is SiaP. Details: method as in PMID 16702222. The note with it: cited from earlier work.
Another assay deals with SusD. Also noted: method as in PMID 18611383. The conditions noted are these: non-physiological ligand; cited from earlier work.
[2] abbreviates: 0.5 μM protein, 25 mM sodium phosphate pH 7.4, 25°C, one-site specific binding.

Several values for one entry are separate records, joined by “and”; a condition that tells them apart may be missing. Equal entries are not always repeated.

BF-NanU (BF1720), sequence (Q5LEN2 entry or part of it): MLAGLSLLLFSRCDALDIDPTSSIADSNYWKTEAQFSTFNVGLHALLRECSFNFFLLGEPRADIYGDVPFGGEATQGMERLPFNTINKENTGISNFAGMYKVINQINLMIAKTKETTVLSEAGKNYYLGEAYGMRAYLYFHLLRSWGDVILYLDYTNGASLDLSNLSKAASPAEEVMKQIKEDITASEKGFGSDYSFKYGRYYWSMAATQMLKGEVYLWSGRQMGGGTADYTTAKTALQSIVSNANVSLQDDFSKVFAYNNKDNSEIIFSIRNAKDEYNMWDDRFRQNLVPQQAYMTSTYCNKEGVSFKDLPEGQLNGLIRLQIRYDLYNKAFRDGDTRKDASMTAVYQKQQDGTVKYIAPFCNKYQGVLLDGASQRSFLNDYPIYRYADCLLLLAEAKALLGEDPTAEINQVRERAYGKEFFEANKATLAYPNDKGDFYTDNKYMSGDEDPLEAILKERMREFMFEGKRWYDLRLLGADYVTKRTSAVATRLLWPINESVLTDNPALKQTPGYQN
TF-NanU (TF0034), sequence (G8UIQ0 entry or part of it): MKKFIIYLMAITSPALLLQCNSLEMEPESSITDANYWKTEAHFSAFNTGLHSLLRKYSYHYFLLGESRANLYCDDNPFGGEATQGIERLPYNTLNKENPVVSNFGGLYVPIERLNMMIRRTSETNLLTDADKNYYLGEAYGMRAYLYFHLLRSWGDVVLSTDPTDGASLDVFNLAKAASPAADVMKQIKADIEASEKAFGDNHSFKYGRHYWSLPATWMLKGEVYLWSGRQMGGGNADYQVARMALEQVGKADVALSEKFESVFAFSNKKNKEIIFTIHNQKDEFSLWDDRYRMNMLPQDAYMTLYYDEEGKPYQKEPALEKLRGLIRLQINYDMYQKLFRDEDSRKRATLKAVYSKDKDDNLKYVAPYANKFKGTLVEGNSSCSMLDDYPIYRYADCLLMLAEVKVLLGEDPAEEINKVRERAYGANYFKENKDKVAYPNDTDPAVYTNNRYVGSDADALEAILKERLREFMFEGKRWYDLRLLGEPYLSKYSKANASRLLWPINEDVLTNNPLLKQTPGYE

For the compound `CC(=O)NC1C(O)CC(OC2C(O)C(CO)OC(OC3C(CO)OC(O)C(O)C3O)C2O)(C(=O)O)OC1C(O)C(O)CO` (stereo not shown) [3′-siallyl-lactose], in the assay with NanU, the “binding to NanU (in words)” value is “did not display any interaction”.
Consider `CC(=O)NC1C(O)CC(OCC2OC(OC3C(CO)OC(O)C(O)C3O)C(O)C(O)C2O)(C(=O)O)OC1C(O)C(O)CO` (stereo not shown) [6′-siallyl-lactose], for which the “binding to NanU (in words)” value with NanU is given as “did not display any interaction”.
For `CC(=O)N[C@H]1C(O)O[C@H](CO)[C@@H](O[C@@H]2O[C@H](CO)[C@H](O)[C@H](O)[C@H]2O)[C@@H]1O` (stereo partly shown) [N-acetyl lactosamine], the “binding interaction (range in words)” value in the assay with BT1043 is “in the mM range”.
For `CC(=O)N[C@H]1[C@H]([C@H](O)[C@H](O)CO)OC(C(=O)O)=C[C@@H]1O` [Neu5Ac2en, 2-deoxy-2,3-didehydro-Neu5Ac], the Kd at TF-NanU (TF0034) is 8.3 µM and 8.29 µM; at BF-NanU (BF1720) (setting [2]), 5.6 µM and 5.55 µM.
For the compound `CC(=O)N[C@H]1[C@H]([C@H](O)[C@H](O)CO)OC(O)(C(=O)O)C[C@@H]1O` (stereo partly shown) [Neu5Ac, 5-N-acetylneuraminic acid], the Kd on TF-NanU (TF0034) was 0.425 µM and 0.4 µM; in assay [1], 30 µM; on NanU (NanU from two Bacteroidetes species, approximate summary value), approximately 0.4 µM; on SiaP it was 0.12 µM; at BF-NanU (BF1720) (setting [2]), 0.397 µM and 0.4 µM; at BF-NanU (BF1720) (BF-NanU expressed and purified from cells grown in M9 medium plus glycerol (results not shown)), 0.409 µM.
As to `O=C(CO)N[C@H]1[C@H]([C@H](O)[C@H](O)CO)O[C@](O)(C(=O)O)C[C@@H]1O` [Neu5Gc, N-glycolylneuraminic acid], the Kd on TF-NanU (TF0034) was 1.7 µM and 1.99 µM and 2 µM; on BF-NanU (BF1720) (setting [2]) it was 2 µM and 1.67 µM and 1.7 µM. Moreover, the “affinity lower than Neu5Ac (fold)” value in the assay with NanU (Neu5Gc compared with Neu5Ac) amounted to 5 fold.
For `CCOC(=O)C1=C[C@@H](OC(CC)CC)[C@H](NC(C)=O)[C@@H](N)C1` [Oseltamivir, oseltamivir], the “binding to NanU (in words)” value with NanU was “No binding”; in the assay with NanU (listed as oseltamivir) it was “neither”.
Consider `CC(=O)N[C@H]1NC[C@H](C(=O)O)[C@H](O)[C@@H]1O` [Siastatin B, siastatin B], for which the “binding to NanU (in words)” value was “No binding” in the assay on NanU and “neither” with NanU (listed as siastatin B).
For `CC(=O)N[C@H]1[C@H]([C@H](O)[C@H](O)CO)OC(C(=O)O)=C[C@@H]1N=C(N)N` [Zanamivir, zanamivir], the Kd was 1.1 µM and 1.13 µM on TF-NanU (TF0034); 0.9 µM and 0.905 µM on BF-NanU (BF1720) (setting [2]).
cyclodextrin: the “binding interaction (range in words)” value in the assay on SusD is reported as “in the hundreds of μM range”.
As for sialyl-lactose, the “binding to NanU (in words)” value with NanU was “does not bind”.
